Test results taken from PMC11079024, “Identification of a family of species-selective complex I inhibitors as potential anthelmintics” (Nature Communications, 2024).
Values joined by “and” are separate entries in the source; they are usually repeats but may differ in a detail not shown here. Equal entries are not always repeated. Where two headings read alike, the source gives them in different places.

How the values were obtained:
C. elegans = C. elegans chemical screens of RIKEN NPD libraries at 50 μM (hit identification in KCN survival and development/viability assays); assay type: cell-based, Caenorhabditis elegans; conditions: screened at 50 μM in triplicate, KCN = KCN survival assay, Dev. & Viability = development/viability assay
L1 wild-type C. elegans [1] = assay: whole plant or invertebrate; conditions: Caenorhabditis elegans, 15 h
L1 wild-type C. elegans [2] = assay: 15-hour motility assay with drug alone (no KCN); assay type: cell-based, Caenorhabditis elegans; conditions: without KCN, 15-hour; for Value relative to DMSO control, drug alone (without KCN), Mean: mean of replicates; for Value relative to DMSO control, drug alone (without KCN): single replicates
L1 wild-type C. elegans [3] = conditions: for KCN survival assay value relative to DMSO control, Mean / KCN survival assay value relative to DMSO control: drug + KCN, 15-hour; for KCN survival assay value relative to DMSO control, Mean: mean of replicates; for KCN survival assay value relative to DMSO control: single replicates
[4] = read-out: C. elegans KCN Survival Assay LC50

CCCC/C=C\C/C=C\CCCCCCCCc1cccc(O)c1C(=O)O [6-heptadeca-9Z,12Z-dienyl salicylic acid]
Hit Type (C. elegans; […]): KCN
LC50 (L1 wild-type C. elegans [1]; [4]): 3970 nM

O=C(Nc1ccc([N+](=O)[O-])cc1Cl)c1cc(Cl)ccc1O [Niclosamide]
Hit Type (C. elegans; hit = modified z-score < −3): KCN
Value relative to DMSO control, drug alone (without KCN), Mean (L1 wild-type C. elegans [2]; 0.025 µM): 1.071
Value relative to DMSO control, drug alone (without KCN) (L1 wild-type C. elegans [2]; 0.025 µM): 0.995 and 1.216 and 1.349 and 0.779 and 1.019
Value relative to DMSO control, drug alone (without KCN), Mean (L1 wild-type C. elegans [2]; 0.05 µM): 1.075
Value relative to DMSO control, drug alone (without KCN) (L1 wild-type C. elegans [2]; 0.05 µM): 1.004 and 1.000 and 1.245 and 1.142 and 0.983
Value relative to DMSO control, drug alone (without KCN), Mean (L1 wild-type C. elegans [2]; 0.1 µM): 0.944
Value relative to DMSO control, drug alone (without KCN) (L1 wild-type C. elegans [2]; 0.1 µM): 0.881 and 0.705 and 1.000 and 1.091 and 1.040
Value relative to DMSO control, drug alone (without KCN), Mean (L1 wild-type C. elegans [2]; 0.2 µM): 0.857
Value relative to DMSO control, drug alone (without KCN) (L1 wild-type C. elegans [2]; 0.2 µM): 0.621 and 0.780 and 0.965 and 0.960 and 0.957
Value relative to DMSO control, drug alone (without KCN), Mean (L1 wild-type C. elegans [2]; 0.4 µM): 0.828
Value relative to DMSO control, drug alone (without KCN) (L1 wild-type C. elegans [2]; 0.4 µM): 0.811 and 0.792 and 0.740 and 0.844 and 0.957
Value relative to DMSO control, drug alone (without KCN), Mean (L1 wild-type C. elegans [2]; 0.8 µM): 0.938
Value relative to DMSO control, drug alone (without KCN) (L1 wild-type C. elegans [2]; 0.8 µM): 0.966 and 0.718 and 0.993 and 1.008 and 1.003
Value relative to DMSO control, drug alone (without KCN), Mean (L1 wild-type C. elegans [2]; 3.1 µM): 0.892
Value relative to DMSO control, drug alone (without KCN) (L1 wild-type C. elegans [2]; 3.1 µM): 0.775 and 0.855 and 0.898 and 1.068 and 0.863
Value relative to DMSO control, drug alone (without KCN), Mean (L1 wild-type C. elegans [2]; 6.3 µM): 0.921
Value relative to DMSO control, drug alone (without KCN) (L1 wild-type C. elegans [2]; 6.3 µM): 0.820 and 1.003 and 0.834 and 0.940 and 1.007
Value relative to DMSO control, drug alone (without KCN), Mean (L1 wild-type C. elegans [2]; 12.5 µM): 1.018
Value relative to DMSO control, drug alone (without KCN) (L1 wild-type C. elegans [2]; 12.5 µM): 0.937 and 0.884 and 0.971 and 1.234 and 1.065
Value relative to DMSO control, drug alone (without KCN), Mean (L1 wild-type C. elegans [2]; 25 µM): 0.884
Value relative to DMSO control, drug alone (without KCN) (L1 wild-type C. elegans [2]; 25 µM): 0.851 and 0.847 and 1.014 and 1.053 and 0.655
LC50 (L1 wild-type C. elegans [1]; [4]): 95 nM
LC50 (L1 wild-type C. elegans [1]; read-out: C. elegans KCN survival assay LC50): 94.8 nM
C. elegans L1 relative motility, 3-hour post 200 µM KCN dilution (L1 wild-type C. elegans [3]; dose 0.05 µM, Mean of replicates): 1.030
C. elegans L1 relative motility, 3-hour post 200 µM KCN dilution (L1 wild-type C. elegans [3]; dose 0.05 µM, individual replicate (Rep)): 1.077 and 0.962 and 1.145
C. elegans L1 relative motility, 3-hour post 200 µM KCN dilution (L1 wild-type C. elegans [3]; dose 0.1 µM, Mean of replicates): 0.412
C. elegans L1 relative motility, 3-hour post 200 µM KCN dilution (L1 wild-type C. elegans [3]; dose 0.1 µM, individual replicate (Rep)): 0.940 and 1.178 and 0.971
C. elegans L1 relative motility, 3-hour post 200 µM KCN dilution (L1 wild-type C. elegans [3]; dose 0.2 µM, individual replicate (Rep)): 0.475 and 0.408 and 0.354
C. elegans L1 relative motility, 3-hour post 200 µM KCN dilution (L1 wild-type C. elegans [3]; dose 0.8 µM, Mean of replicates): 0.011
C. elegans L1 relative motility, 3-hour post 200 µM KCN dilution (L1 wild-type C. elegans [3]; dose 3.1 µM, Mean of replicates): 0.006
C. elegans L1 relative motility, 3-hour post 200 µM KCN dilution (L1 wild-type C. elegans [3]; dose 3.1 µM, individual replicate (Rep)): 0.000
C. elegans L1 relative motility, 3-hour post 200 µM KCN dilution (L1 wild-type C. elegans [3]; dose 6.3 µM, Mean of replicates): 0.039
C. elegans L1 relative motility, 3-hour post 200 µM KCN dilution (L1 wild-type C. elegans [3]; dose 12.5 µM, Mean of replicates): 0.0056
C. elegans L1 relative motility, 3-hour post 200 µM KCN dilution (L1 wild-type C. elegans [3]; dose 25 µM, Mean of replicates): 0.020
C. elegans L1 relative motility, 3-hour post 200 µM KCN dilution (L1 wild-type C. elegans [3]; dose […], Mean of replicates): 0.000
KCN survival assay value relative to DMSO control, Mean (L1 wild-type C. elegans [3]; 0.025 µM): 1.061
KCN survival assay value relative to DMSO control (L1 wild-type C. elegans [3]; 0.025 µM): 0.962 and 1.145 and 1.077
KCN survival assay value relative to DMSO control, Mean (L1 wild-type C. elegans [3]; 0.05 µM): 1.030
KCN survival assay value relative to DMSO control (L1 wild-type C. elegans [3]; 0.05 µM): 1.178 and 0.971 and 0.940
KCN survival assay value relative to DMSO control, Mean (L1 wild-type C. elegans [3]; 0.1 µM): 0.412
KCN survival assay value relative to DMSO control (L1 wild-type C. elegans [3]; 0.1 µM): 0.408 and 0.354 and 0.475
KCN survival assay value relative to DMSO control, Mean (L1 wild-type C. elegans [3]; 0.2 µM): 0.114
KCN survival assay value relative to DMSO control, Mean (L1 wild-type C. elegans [3]; 0.4 µM): 0.0075
KCN survival assay value relative to DMSO control, Mean (L1 wild-type C. elegans [3]; 0.8 µM): 0.011
KCN survival assay value relative to DMSO control, Mean (L1 wild-type C. elegans [3]; 3.1 µM): 0.006
KCN survival assay value relative to DMSO control, Mean (L1 wild-type C. elegans [3]; 6.3 µM): 0.039
KCN survival assay value relative to DMSO control, Mean (L1 wild-type C. elegans [3]; 12.5 µM): 0.0056
KCN survival assay value relative to DMSO control, Mean (L1 wild-type C. elegans [3]; 25 µM): 0.020
